Results taken from the supplement of paper PMC10307832.

How the values were obtained:
Assay in all cases: relative viability (nuclei count vs DMSO), 5 days (fraction); higher = more cells survive
[1] = compound: O[C@H]1CC[C@H](Nc2ncc3nc(Nc4c(F)cc(F)cc4F)n([C@H]4CCOC4)c3n2)CC1 [Tanzisertib] + COc1cccc2cc(-c3nc([C@H]4CC[C@H](C(=O)O)CC4)n4ncnc(N)c34)[nH]c12 [OSI-027] (partner 0.5 µM)
Procedure, shortened: (§1)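 Relative viability divides the nuclei count in treated wells by that in vehicle wells. Lung cancer cell lines were seeded in 1536-well plates, dosed by pin tool the next day, and fixed and stained after 5 days in one step with final 0.05% Triton X-100, 1% formaldehyde and 1 ug/ml Hoechst. Dosing was a single drug or a fixed anchor-drug dose plus five library-drug doses (not always all listed) in √10 steps, and values are medians of duplicate plates imaged at 4×.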

[2] = compound: C[C@@H](N)c1ccc(C(=O)Nc2ccnc3[nH]ccc23)cc1 + COc1cc2c(Oc3ccc(NC(=O)C4(C(=O)Nc5ccc(F)cc5)CC4)cc3F)ccnc2cc1OCCCN1CCOCC1 [Foretinib] (partner 0.25 µM)
Procedure, shortened: as §1

[3] = compound: C1CNCCC1C2=CC(=NN2)C3=CC=NC=C3 + Nc1nc2[nH]cc(CCc3ccc(C(=O)N[C@@H](CCC(=O)O)C(=O)O)cc3)c2c(=O)[nH]1 [Pemetrexed] (partner 0.2 µM)
Procedure, shortened: as §1

[4] = compound: C1CNCCC1C2=CC(=NN2)C3=CC=NC=C3 + CCNC(=O)c1noc(-c2cc(C(C)C)c(O)cc2O)c1-c1ccc(CN2CCOCC2)cc1 [Luminespib] (partner 0.01 µM)
Procedure, shortened: as §1

Row | Cell Line | relative viability ([1]; first compound 0.08 µM) | relative viability ([1]; first compound 0.253 µM) | relative viability ([1]; first compound 0.8 µM) | relative viability ([1]; first compound 2.53 µM) | relative viability ([1]; first compound 8 µM) | relative viability ([2]; first compound 0.04 µM) | relative viability ([2]; first compound 0.1265 µM) | relative viability ([2]; first compound 0.4 µM) | relative viability ([2]; first compound 1.265 µM) | relative viability ([2]; first compound 4 µM) | relative viability ([3]; first compound 0.08 µM) | relative viability ([3]; first compound 0.8 µM) | relative viability ([3]; first compound 2.53 µM) | relative viability ([3]; first compound 8 µM) | relative viability ([4]; first compound 0.08 µM) | relative viability ([4]; first compound 0.8 µM) | relative viability ([4]; first compound 2.53 µM) | relative viability ([4]; first compound 8 µM)
1 | H3255 | 0.513 | 0.644 | 0.659 | 0.479 | 0.48 | 0.855 | 0.939 | 1.14 | 0.731 | 0.892 | 0.578 | 0.629 | 0.638 | 0.623 | 0.755 | 0.955 | 1.15 | 1.08
2 | NCI-H2228 | 0.822 | 0.633 | 0.616 | 0.499 | 0.379 | 1.03 | 0.743 | 1.02 | 0.911 | 0.866 | 0.31 | 0.373 | 0.384 | 0.356 | 0.121 | 0.162 | 0.189 | 0.161
3 | CAL-12T | 0.612 | 0.633 | 0.62 | 0.748 | 0.635 | 1.36 | 1.27 | 1.13 | 1.27 | 0.909 | 1.22 | 1.32 | 1.21 | 1.09 | 0.606 | 0.734 | 0.457 | 0.819
4 | A-427 | 0.547 | 0.525 | 0.538 | 0.414 | 0.283 | 1.13 | 1 | 1.14 | – | 1.07 | 0.967 | 0.996 | 0.982 | 0.94 | 0.789 | 1.2 | 0.908 | 0.92
5 | HARA | 0.74 | 0.496 | 0.537 | 0.45 | 0.0888 | – | 0.939 | 0.943 | – | 0.896 | 0.238 | 0.236 | 0.228 | 0.159 | 0.647 | 0.72 | 0.793 | 0.687
6 | NCI-H1793 | 0.27 | 0.262 | 0.285 | 0.292 | 0.197 | 0.692 | 0.829 | 0.946 | – | 0.83 | 0.805 | – | 0.929 | 0.974 | 0.197 | 0.169 | 0.182 | 0.186
7 | NCI-H2009 | 0.776 | 0.668 | 0.594 | 0.73 | 0.705 | 1.2 | 1.14 | 1.11 | 1.02 | 0.868 | 0.958 | 1.05 | 0.992 | 1.03 | 0.995 | 1.09 | 1.02 | 1.01
8 | NCI-H322M | 0.636 | 0.623 | 0.539 | 0.6 | 0.538 | 1.29 | 1.19 | 1.29 | – | 1.39 | 0.636 | 0.589 | 0.641 | 0.667 | 0.677 | 0.944 | 0.904 | 1.04
9 | LXF-289 | 0.801 | 0.818 | 0.76 | 0.856 | 0.644 | 1.11 | 0.993 | 0.987 | 1.07 | 0.843 | 0.936 | 0.967 | 0.856 | 0.814 | 0.804 | 0.589 | 0.69 | 0.705
10 | HCC-827 | 0.857 | 0.763 | 0.775 | 0.678 | 0.44 | 1.1 | 1.13 | 1.09 | 1.11 | 0.945 | 0.222 | 0.238 | 0.132 | 0.262 | 0.571 | 0.522 | 0.749 | 0.57
11 | EMC-BAC-2 | 0.404 | 0.383 | 0.383 | 0.37 | 0.363 | 1.08 | 1.05 | 1.11 | 0.967 | 0.903 | 0.464 | 0.448 | 0.435 | 0.439 | 0.882 | 1.16 | 1.28 | 1.14
12 | NCI-H520 | 0.328 | 0.246 | 0.238 | 0.262 | 0.304 | 0.862 | 0.707 | 0.817 | 1.28 | 0.95 | 0.652 | 0.743 | 0.637 | 0.517 | 0.213 | 0.196 | 0.214 | 0.177
13 | NCI-H1755 | 0.747 | 0.77 | 0.676 | 0.706 | 0.517 | 0.95 | 0.96 | 0.901 | 0.903 | 0.664 | 0.475 | 0.439 | 0.433 | 0.329 | 0.301 | – | 0.417 | 0.64
14 | NCI-H1993 | 0.604 | 0.578 | 0.485 | 0.498 | 0.59 | 0.785 | 0.732 | 0.781 | 0.924 | 0.714 | 0.607 | 0.342 | 0.535 | 0.689 | 0.748 | 0.918 | 0.79 | 0.981
15 | NCI-H23 | 0.587 | 0.547 | 0.575 | 0.747 | 0.198 | 0.985 | 1.09 | 0.981 | – | 1.01 | 0.719 | – | 0.808 | 0.818 | – | 0.212 | 0.213 | 0.211
16 | SW 900 | 0.644 | 0.588 | 0.511 | 0.866 | 0.556 | 1.1 | 0.972 | 0.867 | 0.86 | 0.762 | 0.497 | – | 0.5 | 0.454 | 0.187 | 0.172 | 0.165 | 0.168
17 | NCI-H1437 | 0.85 | 0.822 | 0.943 | 0.902 | 0.908 | 1.29 | 1.35 | 1.35 | 1.37 | 1.35 | 0.334 | 0.312 | 0.363 | 0.303 | 1.1 | 1.16 | 1.09 | 1.14
18 | SK-MES-1 | 0.677 | 0.588 | 0.597 | 0.591 | 0.501 | 0.849 | 1.07 | 0.847 | 0.785 | 0.78 | 0.985 | 0.9 | 0.989 | 0.94 | 0.716 | 0.82 | 0.736 | 0.613
